Results taken from ChEMBL document CHEMBL3507680, “University of Dundee, Gates Library screen for HepG2 cell viability”.

Experiment: Human HepG2 cell viability assay in 384 well format
Assay type: toxicity, cell-based
Set-up: dose 125 nL, time 70.5 hour; cytotoxicity at 70.5 h: concentration not given beside the values
Conditions: HepG2 cells, read-out: Inhibition

| SMILES | cytotoxicity at 70.5 h |
| --- | --- |
| Cc1ccc(NC(=O)Cn2ccc3c(=O)n(C)ccc32)cc1F | -5.99% |
| CS(=O)(=O)c1ccc(-c2ccccc2C(=O)O)cc1 | -4.68% |
| CNC(=O)c1cc(C)n(-c2ccccc2)n1 | -2.98% |
| CN(C)C(=O)c1cccnc1SCc1ccccc1Cl | 1.28% |
| CN(C)C(=O)c1cccnc1SCc1ccccc1C#N | -4.31% |
| CSc1ncccc1C(=O)N(CCO)Cc1ccccc1 | -0.362% |
| O=C(NC1CCCCC1)c1cc(Br)cnc1N1CCCCC1 | -4.56% |
| O=C1CC2(CCN(C(=O)c3ccncc3)CC2)Oc2c(Cl)cc(Cl)cc21 | -5.1% |
| O=C1CC2(CCN(C(=O)c3ccccn3)CC2)Oc2c(Br)cc(Br)cc21 | 1.74% |
| Cc1ccc2c(c1)C(=O)CC1(CCN(Cc3ccccc3)CC1)O2 | -2.96% |
| CN(C)C(=O)CN1CCC2(CC1)CC(=O)c1c(ccc3ccccc13)O2 | -1.64% |
| NC(=O)CN1CCC2(CC1)CC(=O)c1ccc3ccccc3c1O2 | -2.33% |
| CCOC(=O)CN1CCC2(CC1)CC(=O)c1ccc3ccccc3c1O2 | -5.23% |
| O=C(NCCc1ccncc1)c1cccnc1OCC(F)(F)F | -1.85% |
| O=C(NCCOCCO)c1cccnc1Oc1ccc(Cl)cc1 | 16.6% |
| O=C(c1cccnc1Oc1ccc(Cl)cc1)N1CC[C@@H](O)C1 | 24.9% |
| COCCNC(=O)c1cccnc1Oc1ccc(Cl)cc1 | -7.58% |
| O=C(NC[C@H]1CCCC[C@H]1O)c1cccc2[nH]c(-c3ccco3)nc12 | 15.3% |
| CC(=O)N1N=C(c2ccccc2)OC1C(=O)N(C)CCc1ccccc1 (stereo unspecified) | 20% |
| CC(=O)N1N=C(c2ccccc2)OC1C(=O)NCCc1cccc(F)c1 (stereo unspecified) | 4.79% |
| CC(=O)N1N=C(c2ccco2)OC1C(=O)NCC(C)C (stereo unspecified) | -4.23% |
| Cc1cc(Cl)ccc1-n1ncc(C(=O)N(C)CCc2ccccn2)c1N | 49.3% |
| CC1(C)OCC(CNC(=O)c2cnn(-c3cccc(Cl)c3Cl)c2N)O1 (stereo unspecified) | 17% |

| SMILES | cytotoxicity at 70.5 h |
| --- | --- |
| CC(C)c1ccc(-n2ncc(C(=O)NCC3COC(C)(C)O3)c2N)cc1 (stereo unspecified) | 26.2% |
| CN(CCc1ccccn1)C(=O)c1cnn(-c2ccccc2F)c1N | 7.25% |
| Cc1ccc(-n2ncc(C(=O)NC3CC(C)(C)NC(C)(C)C3)c2N)cc1 | 19.8% |
| CCOC(=O)C1CCN(C(=O)c2cnn(-c3ccc(C)cc3)c2N)CC1 | -5.44% |
| Cc1ccc(-n2ncc(C(=O)N(C)C3CCN(C)CC3)c2N)cc1C | 8.36% |
| Cc1nn(-c2cc(Cl)cc(Cl)c2)c(C)c1CCC(=O)O | -5.45% |
| Cc1nn(-c2ccccc2Cl)c(C)c1CCC(=O)O | 4.21% |
| CCOc1ccc(NC(=O)C2OC(c3cccs3)=NN2C(C)=O)cc1 (stereo unspecified) | 11.5% |
| CC(=O)N1N=C(c2cccs2)OC1C(=O)Nc1ccc(C(C)C)cc1 (stereo unspecified) | -2.48% |
| CCN(CC)CCNC(=O)CCc1c(C)nn(-c2cccc(Cl)c2)c1C | 0.617% |
| CCOC(=O)CNC(=O)Cn1c(-c2ccoc2)nc(C)c1C | 3.16% |
| CN(CCC(O)c1ccccc1)Cc1nc(-c2ccccc2)no1 (stereo unspecified) | -7.98% |
| CN(CCC(O)c1ccccc1)Cc1ccccc1C#N (stereo unspecified) | -5.67% |
| Nc1c(N2CCCCC2)ncnc1N1CCOCC1 | 1.26% |
| CN(C)C(=O)c1cc2ncc(C(=O)NC3CC3)cc2n1C | -1.06% |
| CC(=O)c1cc2ncc(C(=O)NC3CCCCC3)cc2[nH]1 | 0.178% |
| CNC(=O)c1cnc2c(C)csc2c1 | 22% |
| Cc1csc2cc(C(=O)NC3CC3)cnc12 | -1.57% |
| COCCCNC(=O)c1cn(C(C)(C)C)c2ncccc12 | -5.22% |
| O=C(c1cn(Cc2ccccc2)c2ncccc12)N1CCOCC1 | 2.42% |
| CN1CCN(C(=O)c2cn(Cc3ccccc3)c3ncccc23)CC1 | -3.43% |
| O=C(NCCN1CCCCC1)C(c1ccccc1)N1CCCC1 (stereo unspecified) | 2.81% |
| CCN(CC)CCNC(=O)CCc1c(C)nn(-c2ccccc2Br)c1C | 8.21% |

| SMILES | cytotoxicity at 70.5 h |
| --- | --- |
| N#CCCN(CC1CCCO1)C(=O)c1ccc(C#N)cc1 (stereo unspecified) | -2.77% |
| N#CCCN(CC1CCCO1)C(=O)c1ccc2nonc2c1 (stereo unspecified) | 0.813% |
| N#CCCN(CC1CCCO1)C(=O)c1ccsc1 (stereo unspecified) | -4.29% |
| O=C(NCCn1cccc1)C(c1ccccc1)N1CCCC1 (stereo unspecified) | 1.81% |
| CC(C)(C)C(=O)CN1CCc2ccccc2NCCC1=O | 3.4% |
| COc1ccc2c(c1)CN(Cc1ccco1)C(=O)CCN2CC(C)(C)O | 1.21% |
| COc1ccccc1CN1CC(O)CN(C(=O)OCC(C)C)CC1=O (stereo unspecified) | -10.9% |
| CS(=O)(=O)N1CC(=O)N(CCCc2ccccc2)CC(O)C1 (stereo unspecified) | -8.69% |
| CCS(=O)(=O)N1CC(=O)N(CCCc2ccccc2)CC(O)C1 (stereo unspecified) | -3.91% |
| COc1ccc(CC(=O)N2CC(=O)NCC(C)(C)C2)cc1 | 14.8% |
| O=S1(=O)c2cccnc2OC(COc2ccccc2)CN1CC1CC1 (stereo unspecified) | -2.28% |
| O=S1(=O)c2cccnc2OC(Cc2ccccc2)CN1CC1CC1 (stereo unspecified) | 1.6% |
| CC(C)(C)OCC1CN(Cc2cccs2)S(=O)(=O)c2cnccc2O1 (stereo unspecified) | -2.07% |
| COCC1CN(Cc2ccc(OC)cc2)S(=O)(=O)c2cnccc2O1 (stereo unspecified) | -3.12% |
| COCCN1CCc2ccccc2NCCC1=O | -6.61% |
| O=C(N1CCOCC1)N1C(CN2CCOCC2)[C@]2(O)CC[C@H]1CC2 (stereo partly specified) | 3.03% |
| CNC(=O)CN(C(=O)c1ccccc1)[C@H]1C[C@H]2CCOC[C@H]2C1 | -1.15% |
| CCN1CC2(CCCCN2C(=O)C2CCCCC2)CC1=O (stereo unspecified) | -7.76% |
| Cc1cccc(CN2CCc3[nH]nc(C(=O)N4CCOCC4)c3C2)n1 | 0.815% |
| N#CC1(C(=O)N2Cc3cc(-c4cc[nH]n4)ccc3C2c2cnco2)CC1 (stereo unspecified) | 1.75% |
| COCCNC(=O)c1ccnn1-c1ccc2ccccn12 | -4.72% |
| COCCCN1CC2(CCCCN2C(=O)COC)CC1=O (stereo unspecified) | -8.44% |
| CCc1ccc(CN2CCc3[nH]nc(C(=O)N4CCNC(=O)C4)c3C2)o1 | -11.8% |

| SMILES | cytotoxicity at 70.5 h |
| --- | --- |
| CN(Cc1cccs1)C1CCC[C@@H]2CN(C(=O)c3cccn3C)C[C@H]12 (stereo partly specified) | -12.3% |
| CCN1C[C@@H]2CN(C(=O)C3CC=CC3)C[C@@H]2C1=O | 28% |
| CN(C)c1ccc2c(c1)CN(C(=O)c1ccco1)C2c1cnco1 (stereo unspecified) | 32.5% |
| CC1N(CC2CC2)C(=O)COC12CCN(C(=O)c1cnccn1)CC2 (stereo unspecified) | -5.19% |
| O=C1COC2(CCN(C(=O)c3cnccn3)CC2)CN1CC1CC1 | 18.8% |
| Cc1nc(CN2CCC23CCN(C(=O)c2ccncc2)CC3)cs1 | -9.81% |
| CN1Cc2ccccc2CC2(CCN(c3ncccn3)CC2)C1=O | -14.8% |
| C[C@@H]1C[C@@H]2CCN(Cc3nccs3)C[C@H]2O1 | -9.1% |
| O=C(NC[C@H]1C[C@@H]2CN(C(=O)c3ccno3)C[C@@H]2O1)C1CCC1 | -11.5% |
| Cc1noc(C[C@@H]2COC[C@H]3CN(C(=O)C4=CCCC4)C[C@@H]23)n1 | -13.5% |
| CN1Cc2ccccc2CC2(CCN(c3ncc(F)cn3)CC2)C1=O | -12.1% |
| CCNC(=O)N1CCC2(CC1)CCn1c(C3CC3)cnc12 | 30.6% |
| CCN(C)C(=O)c1cnc(-c2noc3cc(N4CCCCC4)ccc23)s1 | 30.7% |
| COc1cccc(-c2cnc3n2CCC32CCN(S(C)(=O)=O)CC2)c1 | -2.2% |
| O=C(NC1CC1)c1cnc(-c2noc3cc(N4CCCCC4)ccc23)s1 | -0.737% |
| Cc1nnc([C@H]2C[C@H]3OCC[C@H]3N(S(=O)(=O)C3CC3)C2)o1 | 5.23% |
| CCn1c(C(=O)N2CCN(CC[S+](C)[O-])CC2)cc2ccccc21 (stereo unspecified) | 0.944% |
| CCN(Cc1ccc2c(c1)OCO2)S(=O)(=O)N(C)C | 0.18% |
| O=C(c1cccn1Cc1cccs1)N1CCN2CCCCC2C1 (stereo unspecified) | 4.27% |
| CNC(=O)N1CCC2(CC1)CN(C(C)C)Cc1cc(F)ccc12 | -2.71% |
| O=C(O)c1c(NC2CCC2)ncc2c1CCN(C1CCOC1)C2 (stereo unspecified) | -6.13% |
| Cc1ccc(N2CCN(CC3CC3)C3(CCN(C(C)C)CC3)C2=O)cn1 | -5.52% |
| Cc1ccc(CN2CCc3[nH]nc(C(=O)N4CCNC(=O)C4)c3C2)s1 | 3.82% |

| SMILES | cytotoxicity at 70.5 h |
| --- | --- |
| Cn1ccnc1NC[C@@H]1CCC[C@@H]2CN(Cc3nccs3)C[C@@H]21 | -0.236% |
| CC(C)n1c(C(=O)N2CCCC2)nc2c1CCN(C)C2 | -5.23% |
| CN1CCc2c(CNc3ncccn3)n[nH]c2C1 | 49.1% |
| CN(C)C[C@H]1C[C@@H]2CN(C(=O)c3ccno3)C[C@@H]2O1 | -16.7% |
| Cn1nc(Cn2cccc2)c2c1CN(Cc1ccoc1)C2 | 21.4% |
| O=C(c1ccccc1)N1CCO[C@@H]2CN(c3cnccn3)C[C@@H]2C1 | -12.3% |
| CC(C)N1CCC2(CCCN(C(=O)c3cncn3C)C2)CC1 | -12% |
| Cc1nc(CN2C(=O)CC3(CCN(C(N)=O)CC3)c3ccccc32)cs1 | -2.82% |
| c1cncc(C2CC3(CCN(c4cnccn4)CC3)c3ccccc32)c1 (stereo unspecified) | -1.15% |
| c1cnc(N2CC3(CCN(CC4CCOC4)CC3)c3ccccc32)nc1 (stereo unspecified) | 0.807% |
| c1cnc(N2CC3(CCN(C4CCOCC4)CC3)c3ccccc32)nc1 | -0.647% |
| O=C([C@H]1COC[C@H]2CN(c3ncc(F)cn3)C[C@H]21)N1CCOCC1 | -7.81% |
| Cc1nnc([C@@H]2CC[C@@H]3[C@@H](CCN3Cc3ccccn3)O2)o1 | 10.5% |
| CN(C)CC(=O)N1CCC2(CCc3ccc(-c4ccncc4)cc32)CC1 | 3.66% |
| Cn1nc(Cn2ccnc2)c2c1CN(Cc1ccoc1)C2 | 24.7% |
| Cn1nc(CN2CCCCC2)c2c1CN(Cc1ccoc1)C2 | -7.22% |
| Cc1cc(C(=O)N2CCCC3(COCCN(c4ncccn4)C3)C2)[nH]n1 (stereo unspecified) | -6.04% |
| O[C@@H]1CCN(CC2CCOC2)[C@H]1Cc1cccnc1 (stereo partly specified) | -12.1% |
| CS(=O)(=O)N[C@@H]1CCN(Cc2nccs2)[C@H]1Cc1ccncc1 | -13.1% |
